Values quoted from earlier work as cited in US11179370B2, “Cannabinoid receptor antagonists/inverse agonists useful for treating disease conditions, including metabolic disorders and cancers” (Jenrin Discovery, LLC, priority 2012, dated 2021).

Conditions: type 2 diabetes patients without other anti-diabetic medication, after six months of treatment, baseline value 7.9

For `Cc1c(C(=O)NN2CCCCC2)nn(-c2ccc(Cl)cc2Cl)c1-c1ccc(Cl)cc1` [rimonabant], the HbA1c levels lowered is listed as 0.8%.
